Measured values published in the supplement of paper PMC10307832.

What was measured:
Experiment in all cases: relative viability (nuclei count vs DMSO), 5 days (fraction); higher = more cells survive
[1] = compound: CC1=CC(=C(N1C2=CC=C(C=C2)Cl)C)C(=O)CN3CCCCC3 [IU1-47] + CCNC(=O)c1noc(-c2cc(C(C)C)c(O)cc2O)c1-c1ccc(CN2CCOCC2)cc1 [Luminespib] (partner 0.01 µM)
Summary of the method: (§1)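 Relative viability equals treated-well nuclei counts divided by vehicle-well nuclei counts. Counts came from 4× images of lung cancer cell lines grown in 1536-well plates for 5 days after pin-tool dosing on the day after seeding. Dosing used one drug alone or a fixed anchor-drug dose plus five library-drug doses (not always all listed) in √10 steps, and values are medians of duplicate plates.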

[2] = compound: Cc1nc(C(=O)NCC(=O)O)c(O)c2ccc(Oc3ccccc3)cc12 [FG-4592] + Nc1ncn([C@H]2C[C@H](O)[C@@H](CO)O2)c(=O)n1 [Decitabine] (partner 2 µM)
Summary of the method: as §1

[3] = compound: Cc1nc(C(=O)NCC(=O)O)c(O)c2ccc(Oc3ccccc3)cc12 [FG-4592] + CC(=O)Nc1cccc(-n2c(=O)n(C3CC3)c(=O)c3c(Nc4ccc(I)cc4F)n(C)c(=O)c(C)c32)c1 [Trametinib] (partner 0.02 µM)
Summary of the method: as §1

[4] = compound: Cc1nc(C(=O)NCC(=O)O)c(O)c2ccc(Oc3ccccc3)cc12 [FG-4592] + C[C@]1(O)C[C@@H](c2nc(-c3ccc4ccc(-c5ccccc5)nc4c3)c3c(N)nccn32)C1 [Linsitinib] (partner 1 µM)
Summary of the method: as §1

| Cell Line | relative viability ([1]; first compound 0.08 µM) | relative viability ([1]; first compound 0.253 µM) | relative viability ([1]; first compound 0.8 µM) | relative viability ([1]; first compound 8 µM) | relative viability ([2]; first compound 0.08 µM) | relative viability ([2]; first compound 0.253 µM) | relative viability ([2]; first compound 0.8 µM) | relative viability ([2]; first compound 2.53 µM) | relative viability ([2]; first compound 8 µM) | relative viability ([3]; first compound 0.08 µM) | relative viability ([3]; first compound 0.253 µM) | relative viability ([3]; first compound 0.8 µM) | relative viability ([3]; first compound 2.53 µM) | relative viability ([3]; first compound 8 µM) | relative viability ([4]; first compound 0.08 µM) | relative viability ([4]; first compound 0.253 µM) | relative viability ([4]; first compound 0.8 µM) | relative viability ([4]; first compound 2.53 µM) | relative viability ([4]; first compound 8 µM) | relative viability ([1]; first compound 2.53 µM) |
| --- | --- | --- | --- | --- | --- | --- | --- | --- | --- | --- | --- | --- | --- | --- | --- | --- | --- | --- | --- | --- |
| 201T | 1.1 | 1.08 | 1.15 | 1.07 | 0.865 | 0.839 | 0.842 | 0.859 | 0.878 | 0.691 | 0.695 | 0.719 | 0.772 | 0.708 | 0.943 | 0.963 | 0.897 | 1.08 | 1.02 |  |
| A549 |  |  |  |  | 0.276 | 0.214 | 0.378 | 0.281 | 0.207 |  |  |  |  |  | 0.476 | 0.549 |  | 0.546 | 0.588 |  |
| A-427 | 0.999 | 0.89 | 0.971 | 0.872 | 0.535 | 0.558 | 0.503 | 0.558 | 0.567 | 0.772 | 0.724 | 0.677 | 0.72 | 0.723 | 1.06 | 1.05 | 1.06 | 1.14 | 1.1 | 1.04 |
| ABC-1 | 0.957 | 1.01 | 1.02 | 0.733 | 0.87 | 1.09 |  | 0.898 | 0.957 |  |  |  |  |  | 0.92 |  | 0.722 | 0.8 | 0.844 |  |
| BEN | 0.362 | 0.459 | 0.414 | 0.344 | 0.649 | 0.651 | 0.555 | 0.738 | 0.607 | 0.916 | 0.913 | 0.783 | 0.879 | 0.871 | 0.85 | 0.748 | 0.692 | 0.934 | 0.602 |  |
| CAL-12T | 0.878 | 0.291 | 0.363 | 0.495 |  |  |  |  |  | 0.367 | 0.307 | 0.301 | 0.29 | 0.219 | 0.709 | 0.798 | 0.836 | 0.775 | 0.716 | 0.438 |
| COR-L23 | 0.836 | 0.85 | 0.71 | 0.675 | 0.422 | 0.371 | 0.377 | 0.393 | 0.362 | 0.678 | 0.519 | 0.608 | 0.508 | 0.355 | 0.832 | 0.746 | 0.915 | 0.913 | 0.912 | 0.817 |
| COR-L 105 | 0.775 | 0.673 | 1 | 0.696 | 0.649 | 0.691 | 0.597 | 0.621 | 0.641 | 0.45 | 0.461 | 0.445 | 0.434 | 0.397 | 0.897 | 0.738 | 1.12 | 1.08 | 0.997 | 0.809 |
| Calu-6 |  |  |  |  |  |  |  |  |  |  |  |  |  |  | 0.863 | 0.942 | 0.941 | 0.859 | 0.993 |  |
| ChaGo-K-1 | 0.623 | 0.618 | 0.713 | 0.703 | 0.508 | 0.427 | 0.509 | 0.493 | 0.466 | 0.953 | 0.79 | 0.899 | 0.846 | 0.931 |  |  |  |  |  | 0.671 |
| EBC-1 |  |  |  |  |  |  |  |  |  |  |  |  |  |  | 0.88 | 0.905 | 0.824 | 0.862 | 0.825 |  |
| EKVX | 1.01 | 1.05 | 0.881 | 0.978 | 0.325 | 0.368 | 0.287 | 0.319 | 0.341 | 0.318 | 0.352 | 0.334 | 0.332 | 0.24 | 1.01 | 0.916 | 0.948 | 0.989 | 0.989 | 1.02 |
| EMC-BAC-2 | 1.4 | 1.32 | 1.28 | 0.93 | 1.01 | 0.962 |  | 1.02 | 0.942 | 0.939 | 0.892 |  | 0.845 | 0.88 | 0.846 | 0.767 | 0.767 | 0.836 | 0.833 | 1.26 |
| EPLC-272H | 0.382 | 0.261 | 0.221 | 0.315 | 0.417 | 0.302 | 0.304 | 0.368 | 0.382 | 0.288 | 0.232 | 0.234 | 0.303 | 0.308 | 1.09 | 1.06 | 0.859 | 1.18 | 1.03 |  |
| H3255 | 1.09 | 1 | 0.757 | 0.888 | 0.702 | 0.585 | 0.6 | 0.592 | 0.557 | 0.6 | 0.547 | 0.5 | 0.602 | 0.532 | 0.963 | 0.868 | 0.896 | 1.07 | 0.959 | 0.41 |
| HARA | 0.858 | 0.98 | 1.66 | 0.49 |  |  |  | 0.676 | 0.559 |  |  |  | 0.586 | 0.667 | 0.955 | 0.881 |  | 0.996 | 1.03 |  |
| HCC-15 | 0.442 | 0.379 | 0.389 | 0.358 | 0.677 | 0.585 | 0.606 | 0.661 | 0.765 | 0.41 | 0.359 | 0.352 | 0.395 | 0.412 | 0.874 | 0.805 | 0.93 | 0.831 | 0.914 |  |
| HCC-44 | 1.17 | 1.03 | 1.11 | 1.21 | 0.902 | 0.941 | 0.914 | 0.93 | 1 | 1.06 | 1.08 | 1.1 | 0.991 | 1.08 | 0.671 | 0.603 | 0.569 | 0.732 | 0.661 | 0.987 |
| HCC-78 |  |  |  |  | 0.666 |  | 0.694 | 0.652 | 0.562 | 0.719 |  | 0.741 | 0.578 | 0.743 | 0.599 | 0.476 | 0.374 | 0.494 | 0.506 |  |
| HCC-366 |  |  |  |  | 0.359 | 0.347 | 0.324 | 0.383 | 0.308 | 0.326 | 0.347 | 0.246 | 0.361 | 0.271 | 0.443 | 0.571 | 0.551 | 0.693 | 0.517 |  |
